From the NIST ThermoML archive (doi:10.1021/acs.jced.9b00046)
Numbers after ± are expanded uncertainties.

Assay: mn = molality of the nth substance listed, in mol/kg
Conditions: 99.6 kPa, Liquid; for viscosity: Capillary tube (Ostwald / Ubbelohde) method; for mass density: Vibrating tube method

CNC(C)=O [N-methylacetamide] + [Cl-].[Cl-].[Mg+2]
Conditions | mass density, 308.15 K [kg/m3] | mass density, 313.15 K [kg/m3] | mass density, 318.15 K [kg/m3] | mass density, 323.15 K [kg/m3] | mass density, 328.15 K [kg/m3] | viscosity, 308.15 K [mPa·s] | viscosity, 313.15 K [mPa·s] | viscosity, 318.15 K [mPa·s] | viscosity, 323.15 K [mPa·s] | viscosity, 328.15 K [mPa·s]
m2 = 0 | 945.71 ± 1.9 | 941.53 ± 1.9 | 937.33 ± 1.9 | 933.16 ± 1.9 | 928.93 ± 1.9 | 3.488 ± 0.043 | 3.073 ± 0.038 | 2.723 ± 0.034 | 2.438 ± 0.03 | 2.194 ± 0.027
m2 = 0.00111 | 945.76 ± 1.9 | 941.57 ± 1.9 | 937.37 ± 1.9 | 933.2 ± 1.9 | 928.98 ± 1.9 | 3.491 ± 0.043 | 3.077 ± 0.038 | 2.725 ± 0.034 | 2.44 ± 0.03 | 2.196 ± 0.027
m2 = 0.004 | 945.9 ± 1.9 | 941.69 ± 1.9 | 937.51 ± 1.9 | 933.33 ± 1.9 | 929.12 ± 1.9 | 3.502 ± 0.043 | 3.087 ± 0.038 | 2.735 ± 0.034 | 2.448 ± 0.03 | 2.203 ± 0.027
m2 = 0.00479 | 945.94 ± 1.9 | 941.73 ± 1.9 | 937.54 ± 1.9 | 933.37 ± 1.9 | 929.16 ± 1.9 | 3.505 ± 0.043 | 3.09 ± 0.038 | 2.737 ± 0.034 | 2.451 ± 0.03 | 2.204 ± 0.027
m2 = 0.00663 | 946.03 ± 1.9 | 941.81 ± 1.9 | 937.63 ± 1.9 | 933.45 ± 1.9 | 929.24 ± 1.9 | 3.512 ± 0.043 | 3.097 ± 0.038 | 2.743 ± 0.034 | 2.455 ± 0.03 | 2.208 ± 0.027
m2 = 0.00734 | 946.06 ± 1.9 | 941.85 ± 1.9 | 937.66 ± 1.9 | 933.48 ± 1.9 | 929.29 ± 1.9 | 3.514 ± 0.043 | 3.099 ± 0.038 | 2.747 ± 0.034 | 2.457 ± 0.03 | 2.211 ± 0.027
m2 = 0.00868 | 946.13 ± 1.9 | 941.92 ± 1.9 | 937.73 ± 1.9 | 933.54 ± 1.9 | 929.35 ± 1.9 | 3.52 ± 0.043 | 3.103 ± 0.038 | 2.75 ± 0.034 | 2.462 ± 0.03 | 2.214 ± 0.027
m2 = 0.01179 | 946.27 ± 1.9 | 942.07 ± 1.9 | 937.87 ± 1.9 | 933.7 ± 1.9 | 929.49 ± 1.9 | 3.531 ± 0.043 | 3.114 ± 0.038 | 2.76 ± 0.034 | 2.471 ± 0.03 | 2.221 ± 0.027
m2 = 0.01529 | 946.45 ± 1.9 | 942.24 ± 1.9 | 938.04 ± 1.9 | 933.87 ± 1.9 | 929.68 ± 1.9 | 3.544 ± 0.044 | 3.127 ± 0.038 | 2.771 ± 0.034 | 2.48 ± 0.031 | 2.23 ± 0.028
m2 = 0.02124 | 946.72 ± 1.9 | 942.53 ± 1.9 | 938.33 ± 1.9 | 934.15 ± 1.9 | 929.95 ± 1.9 | 3.566 ± 0.044 | 3.147 ± 0.039 | 2.792 ± 0.034 | 2.495 ± 0.031 | 2.244 ± 0.028
m2 = 0.02416 | 946.86 ± 1.9 | 942.67 ± 1.9 | 938.47 ± 1.9 | 934.29 ± 1.9 | 930.09 ± 1.9 | 3.577 ± 0.044 | 3.156 ± 0.039 | 2.801 ± 0.034 | 2.505 ± 0.031 | 2.251 ± 0.028
m2 = 0.05144 | 948.15 ± 1.9 | 943.94 ± 1.9 | 939.77 ± 1.9 | 935.6 ± 1.9 | 931.4 ± 1.9 | 3.681 ± 0.045 | 3.251 ± 0.04 | 2.89 ± 0.036 | 2.579 ± 0.032 | 2.317 ± 0.029
m2 = 0.0831 | 949.6 ± 1.9 | 945.45 ± 1.9 | 941.26 ± 1.9 | 937.11 ± 1.9 | 932.91 ± 1.9 | 3.798 ± 0.047 | 3.361 ± 0.041 | 2.994 ± 0.037 | 2.67 ± 0.033 | 2.391 ± 0.029
